The target of the data set is T1, Human glucokinase (Homo sapiens, UniProt P35557).
T1 construct: the glucokinase polypeptide beginning with Ser-6 is obtained; GST (N, cleaved yes); made in house; host or cells: E. coli BL21
T1 sequence (P35557 6-464 isoform P35557-3 limits assumed): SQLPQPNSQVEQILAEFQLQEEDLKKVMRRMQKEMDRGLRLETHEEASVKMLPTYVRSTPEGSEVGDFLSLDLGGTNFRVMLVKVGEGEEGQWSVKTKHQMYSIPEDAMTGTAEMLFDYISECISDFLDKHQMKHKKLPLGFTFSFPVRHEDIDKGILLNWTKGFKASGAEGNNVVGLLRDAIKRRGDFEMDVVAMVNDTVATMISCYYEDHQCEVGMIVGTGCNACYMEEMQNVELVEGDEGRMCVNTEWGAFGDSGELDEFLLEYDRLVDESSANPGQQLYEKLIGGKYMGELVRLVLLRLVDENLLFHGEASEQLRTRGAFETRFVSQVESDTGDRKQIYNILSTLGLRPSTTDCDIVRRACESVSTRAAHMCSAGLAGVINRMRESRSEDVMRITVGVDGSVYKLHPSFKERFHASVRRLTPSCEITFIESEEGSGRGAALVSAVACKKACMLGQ
As to the kind of experiment: Enzymatic test of glucokinase activators (coupled optical test). Format: biochemical. The following applies: 5 mM glucose; for Concentration raising glucokinase activity by 50% (EC150): concentration of test compound which increases the enzymatic activity by 50% (0 μM = 100%), 25° C., 1 mM ATP, pH 7; for Fold induction: maximum fold stimulation: highest change in extinction in the concentration range 0.1-100 μM relative to change without test substance. An excerpt: Enzymatic Test of Glucokinase Activators
Human glucokinase is expressed as a fusion protein with glutathione S-transferase (GST) in E. coli BI21 and purified by affinity chromatography. […] is cleaved off by digestion with factor Xa, and the glucokinase polypeptide beginning with Ser-6 is obtained. The latter is purified chromatographically. At room temperature, a typical glucokinase preparation has a specific activity of 30 U/mg protein.
The activity of glucokinase and the effect of compounds on this activity are determined by a coupled optical test at 25° C. The test volume is 100 μl. The test composition is: 25 mM HEPES/NaOH (Merck; #110110) pH 7, 25 mM KCl (Merck; #04933), 2 mM MgCl2 (Merck; #05833), 1 mM dithiothreitol (Merck; #112013), 1 mM NAD (Sigma; #N1511), 5 mM glucose (Merck; #108337), 1 mM ATP (Sigma; #A2383), 0.1% (w/v) bovine serum albumin (Merck; #112018), 0.002 U glucokinase preparation and 3.2 U glucose 6-phosphate dehydrogenase (Sigma; #G8529). The mixture furthermore contains a test compound. The test compounds are in each case dissolved in 10 mM DMSO and are tested at final concentrations of 0 μM, 0.1 μM, 0.3 μM, 1 μM, 3 μM, 10 μM, 30 μM and 100 μM. The final concentration of DMSO in the test is 1% (v/v). The reaction is started by addition of ATP. The absorption of the mixture at 340 nm is determined immediately after the addition of ATP and then 25 min later using a multiwell plate photometer (from Labsystems, Multiskan Ascent). The change of the absorption during this period is calculated.
The crude data of the changes in extinction are transferred into a Microsoft Excel file. The value for 0 μM test compound is assigned to be 100%. Dose/activity curves are calculated using the program XL.Fit according to the instructions of the manufacturer (IDBS). The concentration of a test compound which increases the enzymatic activity by 50% is defined as EC150. The maximum fold stimulation corresponds to the ratio of the highest change in extinction in the concentration range of a test compound to the change of the absorption without test substance.

`CCOC(=O)c1ccc2c(c1)S(=O)(=O)c1ccc(C(CC3CCC(=O)C3)C(=O)Nc3ccn(C)n3)cc1N2C` (centres unmarked) [Example 42, Ethyl 10-methyl-8-[1-(1-methyl-1H-pyrazol-3-ylcarbamoyl)-2-(3-oxocyclopentyl)-ethyl]-5,5-dioxo-5,10-dihydrophenothiazine-3-carboxylate]: the Concentration raising glucokinase activity by 50% (EC150) came to 1200 nM and the Fold induction was found to be 3.6.
`Cc1ccc(NC(=O)C(CC2CCOCC2)c2ccc3c(c2)N(C)c2ccccc2S3(=O)=O)nn1` (centres unmarked) [Example 6, 2-(10-Methyl-5,5-dioxo-5,10-dihydrophenothiazin-2-yl)-N-(6-methylpyridazin-3-yl)-3-(tetrahydropyran-4-yl)propionamide] registered a Concentration raising glucokinase activity by 50% (EC150) of 15500 nM and a Fold induction of 2.1.
Taken in the same sequence, the figures for `CN1c2ccccc2S(=O)(=O)c2ccc(C(CC3CCC(=O)CC3)C(=O)Nc3ccn(C)n3)cc21` (centres unmarked) [Example 36, 2-(10-Methyl-5,5-dioxo-5,10-dihydrophenothiazin-2-yl)-N-(1-methyl-1H-pyrazol-3-yl)-3-(4-oxocyclohexyl)propionamide] were 500 nM and 4.0.
For `CN1c2ccccc2S(=O)(=O)c2ccc(C(CC3CCCC3)C(=O)Nc3nccs3)cc21` (centres unmarked) [Example 9, 3-Cyclopentyl-2-(10-methyl-5,5-dioxo-5,10-dihydrophenothiazin-2-yl)-N-thiazol-2-yl-propionamide], in that order: 2200 nM and 2.8.
For `Cn1ccc(NC(=O)C(C[C@H]2CCC(=O)C2)c2ccc3c(c2)Nc2ccccc2S3(=O)=O)n1` (stereo partly drawn) [Example 46, 2-(5,5-Dioxo-5,10-dihydrophenothiazin-2-yl)-N-(1-methyl-1H-pyrazol-3-yl)-3-((R)-3-oxocyclopentyl)propionamide], in that order: 600 nM and 5.0.
In the case of `COc1ccc2nc(NC(=O)C(CC3CCOCC3)c3ccc4c(c3)N(C)c3ccccc3S4(=O)=O)sc2n1` (centres unmarked) [Example 15, N-(5-Methoxy-thiazolo[5,4-b]pyridin-2-yl)-2-(10-methyl-5,5-dioxo-5,10-dihydrophenothiazin-2-yl)-3-(tetrahydropyran-4-yl)propionamide], the Concentration raising glucokinase activity by 50% (EC150) worked out at 900 nM and the Fold induction was determined as 5.0.
For `CN1c2ccccc2S(=O)(=O)c2ccc(C(CC3CCOCC3)C(=O)Nc3nccs3)cc21` (centres unmarked) [Example 1, 2-(10-Methyl-5,5-dioxo-5,10-dihydrophenothiazin-2-yl)-3-(tetrahydropyran-4-yl)-N-thiazol-2-ylpropionamide], in that order: 4200 nM and 2.0.
For the compound `CN1c2ccccc2S(=O)(=O)c2ccc(C(CC3CCOCC3)C(=O)Nc3ccn(C)n3)cc21` (centres unmarked) [Example 5, 2-(10-Methyl-5,5-dioxo-5,10-dihydrophenothiazin-2-yl)-N-(1-methyl-1H-pyrazol-3-yl)-3-(tetrahydropyran-4-yl)propionamide], the Concentration raising glucokinase activity by 50% (EC150) is 2100 nM and the Fold induction was found to be 4.4.
For `Cn1ccc(NC(=O)C(CC2CC=C(F)CC2)c2ccc3c(c2)Nc2ccccc2S3(=O)=O)n1` (centres unmarked) [Example 54, 2-(5,5-Dioxo-5,10-dihydrophenothiazin-2-yl)-3-(4-fluorocyclohex-3-enyl)-N-(1-methyl-1H-pyrazol-3-yl)propionamide], in that order: 1000 nM and 4.5.
For `COc1ccc2nc(NC(=O)C(C[C@H]3CCC(=O)C3)c3ccc4c(c3)N(C)c3ccccc3S4(=O)=O)sc2n1` (stereo partly drawn) [Example 41, N-(5-Methoxythiazolo[5,4-b]pyridin-2-yl)-2-(10-methyl-5,5-dioxo-5,10-dihydrophenothiazin-2-yl)-3-((R)-3-oxocyclopentyl)propionamide], in that order: 700 nM and 3.9.

The values above are taken from patent publication US7732440B2, “Phenothiazin derivatives, method for the production thereof and use thereof as pharmaceuticals” (Sanofi-Aventis, priority 2007, dated 2010).
